Target: MAPK13 (Homo sapiens (Human), UniProt O15264)
Settings: read-out: MAPK13 IC50

Chain of MAPK13 (O15264 whole entry): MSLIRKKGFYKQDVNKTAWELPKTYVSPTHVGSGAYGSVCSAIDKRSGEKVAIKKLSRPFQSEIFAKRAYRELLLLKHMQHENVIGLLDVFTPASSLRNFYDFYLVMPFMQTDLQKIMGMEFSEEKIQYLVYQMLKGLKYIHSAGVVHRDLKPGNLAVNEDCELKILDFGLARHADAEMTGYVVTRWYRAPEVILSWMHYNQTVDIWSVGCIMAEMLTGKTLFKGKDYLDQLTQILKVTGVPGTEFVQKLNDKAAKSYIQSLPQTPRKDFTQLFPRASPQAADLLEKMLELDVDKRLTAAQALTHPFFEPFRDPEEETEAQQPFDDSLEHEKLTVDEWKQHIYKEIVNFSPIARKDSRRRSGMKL

Row | SMILES | IC50 [nM]
1 | Cc1ccc(-n2nc(C(C)(C)C)cc2NC(=O)Nc2ncc(CCc3ccnc(NC(=O)C4CC4)c3)s2)cc1 [Compound 331, Cyclopropanecarboxylic acid [4-(2-{2-[3-(5-tert-butyl-2-p-tolyl-2H-pyrazol-3-yl)-ureido]-thiazol-5-yl}ethyl)-pyridin-2-yl]-amide] | 11
2 | Cc1ccc(-n2nc(C(C)(C)C)cc2NC(=O)Nc2ncc(CCc3ccnc(NC(=O)C4CCC4)c3)s2)cc1 [Compound 332, Cyclobutanecarboxylic acid [4-(2-{2-[3-(5-tert-butyl-2-p-tolyl-2H-pyrazol-3-yl)-ureido]-thiazol-5-yl}-ethyl)-pyridin-2-yl]-amide] | 18

Same assay, conditions: read-out: MAPK13 inhibition

Row | SMILES | IC50 [nM]
3 | COCC(=O)Nc1cc(Oc2ccc(NC(=O)Nc3cc(C4(C)COC4)nn3-c3ccc(C)cc3)cc2)ccn1 [Compound 259, 2-Methoxy-N-[4-(4-{3-[5-(3-methyl-oxetan-3-yl)-2-p-tolyl-2H-pyrazol-3-yl]-ureido}-phenoxy)-pyridin-2-yl]-acetamide] | < 250
4 | COCC(=O)Nc1cc(Oc2ccc(NC(=O)Nc3cc(C4(C)CSC4)nn3-c3ccc(C)cc3)cc2)ccn1 [Compound 260, 2-Methoxy-N-[4-(4-{3-[5-(3-methyl-thietan-3-yl)-2-p-tolyl-2H-pyrazol-3-yl]-ureido}-phenoxy)-pyridin-2-yl]-acetamide] | < 250
5 | COC(=O)Nc1cc(Oc2ccc(NC(=O)Nc3cc(C4(C)COC4)nn3-c3ccc(C)cc3)cc2)ccn1 [Compound 261, [4-(4-{3-[5-(3-Methyl-oxetan-3-yl)-2-p-tolyl-2H-pyrazol-3-yl]-ureido}-phenoxy)-pyridin-2-yl]-carbainic acid methyl ester] | < 250
6 | COC(=O)Nc1cc(Oc2ccc(NC(=O)Nc3cc(C4(C)CSC4)nn3-c3ccc(C)cc3)cc2)ccn1 [Compound 262, [4-(4-{3-[5-(3-Methyl-thietan-3-yl)-2-p-tolyl-2H-pyrazol-3-yl]-ureido}-phenoxy)-pyridin-2-yl]-carbamic acid methyl ester] | < 250
7 | Cc1ccc(-n2nc(C3(C)CSC3)cc2NC(=O)Nc2ncc(CCc3ccncc3)s2)cc1 [Compound 273, 1-[5-(3-Methyl-thietan-3-yl)-2-p-tolyl-2H-pyrazol-3-yl]-3-[5-(2-pyridin-4-yl-ethyl)-thiazol-2-yl]-urea] | < 250
8 | CCNC(=O)Nc1cc(CCc2cnc(NC(=O)Nc3cc(C(C)(C)C)nn3-c3ccc(C)cc3)s2)ccn1 [Compound 284, 1-[4-(2-{2-[3-(5-tert-Butyl-2-p-tolyl-2H-pyrazol-3-yl)-ureido]-thiazol-5-yl}-ethyl)-pyridin-2-yl]-3-ethyl-urea] | < 250
9 | Cc1ccc(-n2nc(C(C)(C)C)cc2NC(=O)Nc2ncc(CCc3ccnc(NC(=O)C4CCOCC4)c3)s2)cc1 [Compound 288, Tetrahydro-pyran-4-carboxylic acid [4-(2-{2-[3-(5-tert-butyl-2-p-tolyl-2H-1-pyrazol-3-yl)-ureido]-thiazol-5-yl}-ethyl)-pyridin-2-yl]-amide] | < 250
10 | Cc1ccc(-n2nc(C(C)(C)C)cc2NC(=O)Nc2ccc(Oc3ccncc3C)cc2F)cc1 [Compound 300, 1-(5-tert-Butyl-2-p-tolyl-2H-pyrazol-3-yl)-3-[2-fluoro-4-(3-methyl-pyridin-4-yloxy)-phenyl]-urea] | < 250
11 | CC(C)(C)c1cc(NC(=O)Nc2ccc(Oc3ccncc3)cc2F)n(-c2ccc(F)cc2)n1 [Compound 303, 1-[5-tert-Butyl-2-(4-fluoro-phenyl)-2H-pyrazol-3-yl]-3-[2-fluoro-4-(pyridin-4-yloxy)-phenyl]-urea] | < 250
12 | CC(C)(C)c1cc(NC(=O)Nc2ccc(Oc3ccnc(N)c3)cc2F)n(-c2cccc(F)c2)n1 [Compound 304, 1-[4-(2-Amino-pyridin-4-yloxy)-2-fluoro-phenyl]-3-[5-tert-butyl-2-(3-fluoro-phenyl)-2H-pyrazol-3-yl]-urea] | < 250
13 | CC(C)(C)c1cc(NC(=O)Nc2ccc(Oc3ccncc3)cc2F)n(-c2cccc(F)c2)n1 [Compound 306, 1-[5-tert-butyl-2-(3-fluorophenyl)pyrazol-3-yl]-3-[2-fluoro-4-(4-pyridyloxy)phenyl]urea] | < 250
14 | CC(C)(C)c1cc(NC(=O)Nc2ccc(Oc3ccncc3)cc2F)n(CC2CC2)n1 [Compound 310, 1-(5-tert-Butyl-2-cyclopropylmethyl-2H-pyrazol-yl)-3-[2-fluoro-4-(pyridin-4-yloxy)-phenyl]-urea] | < 250
15 | COC(=O)Nc1cc(CCc2ccc(NC(=O)Nc3cc(C(C)(C)C)nn3-c3ccc(C)cc3)c(F)c2)ccn1 [Compound 315, [4-(2-{4-[3-(5-tert-Butyl-2-p-tolyl-2H-pyrazol-3-yl)-ureido]-3-fluoro-phenyl}-ethyl)-pyridin-2-yl]-carbamic acid methyl ester] | > 1000
16 | CC(=O)Nc1cc(CCc2cnc(NC(=O)Nc3cc(C(C)(C)C)nn3CC3CC3)s2)ccn1 [Compound 325, N-[4-(2-{2-[3-(5-tert-Butyl-2-cyclopropylmethyl-2H-pyrazol-3-yl)-ureido]-thiazol-5-yl}-ethyl)-pyridin-2-yl]-acetamide] | < 250
17 | CC(=O)Nc1cc(CCc2ccc(NC(=O)Nc3cc(C(C)(C)C)nn3-c3ccc(C)cc3)c(F)c2)ccn1 [Compound 329, N-[4-(2-{4-[3-(5-tert-Butyl-2-p-tolyl-2H-pyrozol-3-yl)-ureido]-3-fluoro-phenyl}-ethyl)-pyridin-2-yl]-acetamide] | < 250
18 | Cc1ccc(-n2nc(C(C)(C)C)cc2NC(=O)Nc2ncc(CCc3ccnc(NC(=O)C4CC4)c3)s2)cc1 [Compound 331, Cyclopropanecarboxylic acid [4-(2-{2-[3-(5-tert-butyl-2-p-tolyl-2H-pyrazol-3-yl)-ureido]-thiazol-5-yl}ethyl)-pyridin-2-yl]-amide] | < 250

Row | SMILES | IC50 [nM]
19 | Cc1ccc(-n2nc(C(C)(C)C)cc2NC(=O)Nc2ncc(CCc3ccnc(NC(=O)C4CCC4)c3)s2)cc1 [Compound 332, Cyclobutanecarboxylic acid [4-(2-{2-[3-(5-tert-butyl-2-p-tolyl-2H-pyrazol-3-yl)-ureido]-thiazol-5-yl}-ethyl)-pyridin-2-yl]-amide] | < 250
20 | CC(C)(C)c1cc(NC(=O)Nc2ncc(CCc3ccnc(NC(=O)C4CC4)c3)s2)n(CC2CC2)n1 [Compound 334, Cyclopropanecarboxylic acid [4-(2-{2-[3-(5-tert-butyl-2-cyclopropylmethyl-2H-pyrazol-3-yl)-ureido]-thiazol-5-yl}-ethyl)-pyridin-2-yl]-amide] | < 250
21 | CCOC(=O)Nc1cc(CCc2cnc(NC(=O)Nc3cc(C(C)(C)C)nn3C)s2)ccn1 [Compound 335, [4-(2-{2-[3-(5-tert-Butyl-2-methyl-2H-pyrazol-3-yl)-ureido]-thiazol-5-yl}-ethyl)-pyridin-2-yl]-carbamic acid ethyl ester] | < 250
22 | Cc1ccc(-n2nc(C(C)(C)C)cc2NC(=O)Nc2ncc(CCc3ccnc(NC(=O)N4CCCC4)c3)s2)cc1 [Compound 337, Pyrrolidine-1-carboxylic acid [4-(2-{2-[3-(5-tert-butyl-2-p-tolyl-2H-pyrazol-3-yl)-ureido]-thiazol-5-yl}-ethyl)-pyridin-2-yl]-amide] | < 250
23 | CC(C)(C)c1cc(NC(=O)Nc2ncc(CCc3ccnc(NC(=O)C4CCC4)c3)s2)n(CC2CC2)n1 [Compound 339, Cyclobutanecarboxylic acid [4-(2-{2-[3-(5-tert-butyl-2-cyclopropylmethyl-2H-pyrazol-3-yl)-ureido]-thiazol-5-yl}-ethyl)-pyridin-2-yl]-airdde] | < 250
24 | CCNC(=O)Nc1cc(CCc2cnc(NC(=O)Nc3cc(C(C)(C)C)nn3CC3CC3)s2)ccn1 [Compound 340, 1-[4-(2-{2-[3-(5-tert-Butyl-2-cyclopropylmethyl-2H-pyrazol-3-yl)-uredo]-thiazol-5-yl}-ethyl)-pyridin-2-yl]-3-ethyl-urea] | < 250
25 | COCCC(=O)Nc1cc(CCc2cnc(NC(=O)Nc3cc(C(C)(C)C)nn3CC3CC3)s2)ccn1 [Compound 342, N-[4-(2-{2-[3-(5-tert-Butyl-2-cyclopropylmethyl-2H-pyrazol-3-yl)-ureido]-thiazol-5-yl}-ethyl)-pyridin-2-yl]-3-methoxy-propionamide] | < 250
26 | Cn1nc(C(C)(C)C)cc1NC(=O)Nc1ncc(CCc2ccnc(NC(=O)C3CC3)c2)s1 [Compound 345, Cyclopropanecarboxylic acid [4-(2-{2-[3-(5-tert-butyl-2-methyl-2H-pyrazol-3-yl)-ureido]-thiazol-5-yl}-ethyl)-pyridin-2-yl]-amide] | < 250
27 | CC(C)C(=O)Nc1cc(CCc2cnc(NC(=O)Nc3cc(C(C)(C)C)nn3C)s2)ccn1 [Compound 349, N-[4-(2-{2-[3-(5-tert-Butyl-2-methyl-2H-pyrazol-3-yl)-ureido]-thiazol-5-yl}-ethyl)-pyridin-2-yl]-isobutyramide] | < 250
28 | COCC(=O)Nc1cc(CCc2cnc(NC(=O)Nc3cc(C(C)(C)C)nn3C)s2)ccn1 [Compound 350, N-[4-(2-{2-[3-(5-tert-Butyl-2-methyl-2H-pyrazol-3-yl)-ureido]-thiazol-5-yl}-ethyl)-pyridin-2-yl]-2-methoxy-acetamide] | < 250
29 | CCNC(=O)Nc1cc(CCc2cnc(NC(=O)Nc3cc(C(C)(C)C)nn3C)s2)ccn1 [Compound 352, 1-[4-(2-{2-[3-(5-tert-Butyl-2-methyl-2H-pyrazol-3-yl)-ureido]-thiazol-5-yl}ethyl)-pyridin-2-yl]-3-ethyl-urea] | < 250
30 | Cn1nc(C(C)(C)C)cc1NC(=O)Nc1ncc(CCc2ccnc(NC(=O)C3CCC3)c2)s1 [Compound 353, Cyclobutanecarboxylic acid [4-(2-{2-[3-(5-tert-butyl-2-methyl-2H-pyrazol-3-yl)-ureido]-thiazol-5-yl}-ethyl)-pyridin-2-yl]-amide] | < 250
31 | CCOC(=O)Nc1cc(CCc2cnc(NC(=O)Nc3cc(C(F)(F)F)ccc3F)s2)ccn1 [Compound 357, [4-(2-{2-[3-(2-Fluoro-5-trifluoromethyl-phenyl)-ureido]-thiazol-5yl}-ethyl)-pyridin-2-yl]-carbamic acid ethyl ester] | > 1000
32 | CC(=O)Nc1cc(CCc2ccc(NC(=O)Nc3cc(C(C)(C)C)on3)c(F)c2)ccn1 [Compound 358, N-[4-(2-{4-[3-(5-tert-Butyl-isoxazol-3-yl)-ureido]-3-fluoro-phenyl}-ethyl)-pyridin-2-yl]-acetamide] | > 1000
33 | CC(=O)Nc1cc(CCc2ccc(NC(=O)Nc3cc(C(C)(C)C)no3)c(F)c2)ccn1 [Compound 359, N-[4-(2-{4-[3-(3-tert-Butyl-isoxazol-5-yl)-ureido]-3-fluoro-phenyl}-ethyl)-pyridin-2-yl]-acetamide] | > 1000
34 | CC(=O)Nc1cc(CCc2ccc(NC(=O)Nc3cc(C(F)(F)F)ccc3F)c(F)c2)ccn1 [Compound 360, N-[4-(2-{3-Fluoro-4-[3-(2-fluoro-5-trifluoromethyl-phenyl)-ureido]-phenyl}-ethyl)-pyridin-2-yl]-acetamide] | > 1000

— patent publication US11407771B2 (priority 2018, dated 2022)
